Measured values from PubChem BioAssay (NCI).
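Where inhibition never reached the appropriate level, the endpoint shown equals the highest concentration tested. Otherwise, values were interpolated linearly from a five-concentration, 48-hour dose response in 96-well plates. TGI marks complete inhibition of growth.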

Key:
Test in all cases: NCI tumour cell line growth inhibition, 48 h
HCT-116 colon = tested on: HCT-116 colon
NCI/ADR-RES ovarian = tested on: NCI/ADR-RES ovarian
MALME-3M melanoma = tested on: MALME-3M melanoma
LOX IMVI melanoma = tested on: LOX IMVI melanoma
SK-OV-3 ovarian = tested on: SK-OV-3 ovarian
K-562 leukemia = tested on: K-562 leukemia
HT29 colon = tested on: HT29 colon
NCI-H460 lung = tested on: NCI-H460 lung
EKVX NSCLC = tested on: EKVX NSCLC
A498 renal = tested on: A498 renal
HL-60(TB) leukemia = tested on: HL-60(TB) leukemia
MDA-N = tested on: MDA-N
SK-MEL-5 melanoma = tested on: SK-MEL-5 melanoma
NCI-H522 lung = tested on: NCI-H522 lung
CCRF-CEM leukemia = tested on: CCRF-CEM leukemia
PC-3 prostate = tested on: PC-3 prostate
HOP-92 NSCLC = tested on: HOP-92 NSCLC
SK-MEL-2 melanoma = tested on: SK-MEL-2 melanoma
IGROV1 ovarian = tested on: IGROV1 ovarian
TK-10 renal = tested on: TK-10 renal
HCT-15 colon = tested on: HCT-15 colon
OVCAR-4 ovarian = tested on: OVCAR-4 ovarian
RPMI-8226 leukemia = tested on: RPMI-8226 leukemia
OVCAR-8 ovarian = tested on: OVCAR-8 ovarian
SNB-19 CNS = tested on: SNB-19 CNS
BT-549 breast = tested on: BT-549 breast
KM12 colon = tested on: KM12 colon
SF-539 CNS = tested on: SF-539 CNS
ACHN renal = tested on: ACHN renal
U251 CNS = tested on: U251 CNS
MOLT-4 leukemia = tested on: MOLT-4 leukemia
T-47D breast = tested on: T-47D breast
HCC-2998 colon = tested on: HCC-2998 colon
NCI-H226 lung = tested on: NCI-H226 lung
OVCAR-5 ovarian = tested on: OVCAR-5 ovarian
UACC-62 melanoma = tested on: UACC-62 melanoma
MDA-MB-435 = tested on: MDA-MB-435
COLO 205 colon = tested on: COLO 205 colon
SN12C renal = tested on: SN12C renal
A549 NSCLC = tested on: A549 NSCLC
UACC-257 melanoma = tested on: UACC-257 melanoma
UO-31 renal = tested on: UO-31 renal
SF-268 CNS = tested on: SF-268 CNS
HOP-62 NSCLC = tested on: HOP-62 NSCLC
NCI-H23 lung = tested on: NCI-H23 lung
SNB-75 CNS = tested on: SNB-75 CNS
CAKI-1 renal = tested on: CAKI-1 renal
MDA-MB-231 breast = tested on: MDA-MB-231 breast
HS 578T breast = tested on: HS 578T breast
SK-MEL-28 melanoma = tested on: SK-MEL-28 melanoma
DU-145 prostate = tested on: DU-145 prostate
M14 melanoma = tested on: M14 melanoma
SW-620 colon = tested on: SW-620 colon
786-0 renal = tested on: 786-0 renal
OVCAR-3 ovarian = tested on: OVCAR-3 ovarian
MCF7 breast = tested on: MCF7 breast
SF-295 CNS = tested on: SF-295 CNS

C=C1CC(C)(COc2ccc3c(C)c(C)c(=O)oc3c2C)OC1=O (centres undefined)
TGI (HCT-116 colon): 2.41 µM
TGI (NCI/ADR-RES ovarian): 13.8 µM
TGI (MALME-3M melanoma): 5.53 µM
TGI (LOX IMVI melanoma): 2.91 µM
TGI (SK-OV-3 ovarian): 12.2 µM
TGI (K-562 leukemia): 4.4 µM
TGI (HT29 colon): 5.39 µM
TGI (NCI-H460 lung): 19.6 µM
TGI (EKVX NSCLC): 15.1 µM
TGI (A498 renal): 4.26 µM
TGI (HL-60(TB) leukemia): 0.954 µM
TGI (MDA-N): 4.61 µM
TGI (SK-MEL-5 melanoma): 3.73 µM
TGI (NCI-H522 lung): 4.28 µM
TGI (CCRF-CEM leukemia): 3.2 µM
TGI (PC-3 prostate): 7.08 µM
TGI (HOP-92 NSCLC): 2.76 µM
TGI (SK-MEL-2 melanoma): 5.58 µM
TGI (IGROV1 ovarian): 3.35 µM
TGI (TK-10 renal): 3.08 µM
TGI (HCT-15 colon): 4.54 µM
TGI (OVCAR-4 ovarian): 19.3 µM
TGI (RPMI-8226 leukemia): 2.59 µM
TGI (OVCAR-8 ovarian): 7.69 µM
TGI (SNB-19 CNS): 30.4 µM
TGI (BT-549 breast): 3.07 µM
TGI (KM12 colon): 19.6 µM
TGI (SF-539 CNS): 7.04 µM
TGI (ACHN renal): 7.45 µM
TGI (U251 CNS): 18.9 µM
TGI (MOLT-4 leukemia): 4.13 µM
TGI (T-47D breast): 3.09 µM
TGI (HCC-2998 colon): 4.49 µM
TGI (NCI-H226 lung): 32.6 µM
TGI (OVCAR-5 ovarian): 16.2 µM
TGI (UACC-62 melanoma): 2.74 µM
TGI (MDA-MB-435): 11.2 µM
TGI (COLO 205 colon): 2.75 µM
TGI (SN12C renal): 4.28 µM
TGI (A549 NSCLC): 21 µM
TGI (UACC-257 melanoma): 6.98 µM
TGI (UO-31 renal): 22.2 µM
TGI (SF-268 CNS): 15.7 µM
TGI (HOP-62 NSCLC): 28.8 µM
TGI (NCI-H23 lung): 5.25 µM
TGI (SNB-75 CNS): 15.9 µM
TGI (CAKI-1 renal): 6.26 µM
TGI (MDA-MB-231 breast): 7.8 µM
TGI (HS 578T breast): 15.1 µM
TGI (SK-MEL-28 melanoma): 5.08 µM
TGI (DU-145 prostate): 7.08 µM
TGI (M14 melanoma): 10.7 µM
TGI (SW-620 colon): 3.92 µM
TGI (786-0 renal): 3.24 µM
TGI (OVCAR-3 ovarian): 14.2 µM
TGI (MCF7 breast): 2.84 µM
TGI (SF-295 CNS): 16.1 µM

CCOC(=O)[C@H]1O[C@@H]1C(=O)NC(CC(C)C)C(=O)NCCC(C)C (some centres undefined)
TGI (HCT-116 colon): > 100 µM
TGI (NCI/ADR-RES ovarian): > 100 µM
TGI (MALME-3M melanoma): > 100 µM
TGI (SK-OV-3 ovarian): > 100 µM
TGI (K-562 leukemia): > 100 µM
TGI (HT29 colon): > 100 µM
TGI (NCI-H460 lung): > 100 µM
TGI (EKVX NSCLC): > 100 µM
TGI (A498 renal): > 100 µM
TGI (MDA-N): > 100 µM
TGI (SK-MEL-5 melanoma): > 100 µM
TGI (NCI-H522 lung): > 100 µM
TGI (CCRF-CEM leukemia): > 100 µM
TGI (PC-3 prostate): > 100 µM
TGI (HOP-92 NSCLC): > 100 µM
TGI (IGROV1 ovarian): > 100 µM
TGI (HCT-15 colon): > 100 µM
TGI (OVCAR-4 ovarian): > 100 µM
TGI (RPMI-8226 leukemia): > 100 µM
TGI (OVCAR-8 ovarian): > 100 µM
TGI (SNB-19 CNS): > 100 µM
TGI (BT-549 breast): > 100 µM
TGI (KM12 colon): > 100 µM
TGI (SF-539 CNS): > 100 µM
TGI (U251 CNS): > 100 µM
TGI (MOLT-4 leukemia): > 100 µM
TGI (T-47D breast): > 100 µM
TGI (HCC-2998 colon): > 100 µM
TGI (NCI-H226 lung): > 100 µM
TGI (OVCAR-5 ovarian): > 100 µM
TGI (UACC-62 melanoma): > 100 µM
TGI (MDA-MB-435): > 100 µM
TGI (COLO 205 colon): > 100 µM
TGI (SN12C renal): > 100 µM
TGI (A549 NSCLC): > 100 µM
TGI (UACC-257 melanoma): > 100 µM
TGI (UO-31 renal): > 100 µM
TGI (SF-268 CNS): > 100 µM
TGI (HOP-62 NSCLC): > 100 µM
TGI (NCI-H23 lung): > 100 µM
TGI (SNB-75 CNS): > 100 µM
TGI (CAKI-1 renal): > 100 µM
TGI (MDA-MB-231 breast): > 100 µM
TGI (HS 578T breast): > 100 µM
TGI (SK-MEL-28 melanoma): > 100 µM
TGI (DU-145 prostate): > 100 µM
TGI (M14 melanoma): > 100 µM
TGI (SW-620 colon): > 100 µM
TGI (786-0 renal): > 100 µM
TGI (OVCAR-3 ovarian): > 100 µM
TGI (MCF7 breast): > 100 µM
TGI (SF-295 CNS): > 100 µM
